Reference: US20230263822A1, “MODULATION OF FACTOR 11 EXPRESSION” (Ionis Pharmaceuticals, Inc., priority 2008, published 2023)
Strand notation (5' to 3'): a small letter for the sugar, then the base; units joined by * are phosphorothioate-linked, units joined directly phosphodiester-linked; [ ] holds rarer units or linkages, { } end groups; capitals alone tell only the bases. e = 2'-O-(2-methoxyethyl) (MOE); [5mC] = 5-methylcytosine; d = 2'-deoxy (DNA)

Tests used:
Type in all cases: cell-based
human Factor 11 mRNA [1] = experiment: Antisense inhibition of human Factor 11 in HepG2 cells, lipofectin, 75 nM (Example 1); settings: 75 nM antisense oligonucleotide, ~24 h, relative to untreated control cells
Summary of the method: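 HepG2 cells transfected via lipofectin with 75 nM antisense oligonucleotide (5-10-5 MOE gapmers, 20-mers, phosphorothioate, 5-methylcytidines), treated ~24 h. Factor 11 mRNA quantified by real-time PCR, normalised to RIBOGREEN total RNA; percent inhibition versus untreated cells.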

human Factor 11 mRNA [2] = experiment: Antisense inhibition of human Factor 11 in HepG2 cells by microwalk gapmers, lipofectin, 75 nM (Example 3)
Summary of the method: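 HepG2 cells (10,000/well) were transfected via lipofectin with 75 nM 20-mer MOE gapmers (phosphorothioate, 5-methyl-C) for about 24 h. Factor 11 mRNA was measured by qRT-PCR, normalized to RIBOGREEN total RNA, and given as percent inhibition versus untreated cells.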

human Factor 11 mRNA [3] = experiment: Dose-dependent inhibition of human Factor 11 in HepG2 cells, lipofectin 9.375-75 nM (Example 4)
Description: (§1) Cells were plated at a density of 10,000 cells per well and transfected using lipofectin reagent with 9.375 nM, 18.75 nM, 37.5 nM and 75 nM concentrations of antisense oligonucleotide, as specified in Table 9. After a treatment period of approximately 16 hours, RNA was isolated from the cells and Factor 11 mRNA levels were measured by quantitative real-time PCR. Human Factor 11 primer probe set RTS 2966 was used to measure mRNA levels. Factor 11 mRNA levels were adjusted according to total RNA content, as measured by RIBOGREEN. Results are presented as percent inhibition of Factor 11, relative to untreated control cells.

human Factor 11 mRNA [4] = experiment: Dose-dependent inhibition of human Factor 11 in HepG2 cells, electroporation 0.7-20 uM (Example 4)
Description: as §1, with “The gapmers were also transfected via electroporation and their dose dependent inhibition of human Factor 11 mRNA was measured. Cells” for “Cells”, “20,000” for “10,000”, “via electroporation” for “using lipofectin reagent”, “0.7 μM, 2.2 μM, 6.7 μM,” for “9.375 nM, 18.75 nM, 37.5 nM”, “20 μM” for “75 nM”, “10.” for “9.”

[5] = gapmers targeted to SEQ ID NO: 1
[6] = gapmers targeted to SEQ ID NO: 2

412215 (antisense eA*eT*eT*e[5mC]*eT*dT*dT*dG*dG*dG*d[5mC]*d[5mC]*dA*dT*dT*e[5mC]*e[5mC]*eT*eG*eG) [compound 412215]
% inhibition (human Factor 11 mRNA [1]; [5]): 81% | % inhibition (human Factor 11 mRNA [2]; HepG2 cells, lipofectin, gapmers targeted to nucleobases 1062 to 1091 of SEQ ID NO: 1): 82%

413503 (antisense eA*eT*eA*e[5mC]*e[5mC]*dT*dA*dG*dT*dA*d[5mC]*dA*dA*dT*dG*eT*eA*eA*eA*eT) [compound 413503]
% inhibition (human Factor 11 mRNA [1]; [6]): 29%

412209 (antisense eG*eT*eG*e[5mC]*eT*dT*d[5mC]*dA*dG*dT*dA*dG*dA*d[5mC]*dA*eA*eA*eT*eG*eT) [compound 412209]
% inhibition (human Factor 11 mRNA [1]; [5]): 91%

412227 (antisense eA*eG*eT*eA*eT*dT*dT*dT*dA*dG*dT*dT*dG*dG*dA*eG*eA*eT*e[5mC]*e[5mC]) [compound 412227]
% inhibition (human Factor 11 mRNA [1]; [5]): 75%

413514 (antisense eT*eT*eT*eA*e[5mC]*dT*dA*dT*dG*dA*dA*dA*dA*dT*d[5mC]*eT*eA*eA*eA*eT) [compound 413514]
% inhibition (human Factor 11 mRNA [1]; [6]): 5%

413460 (antisense eT*eA*e[5mC]*e[5mC]*eT*dT*dG*dA*dG*dA*dG*dA*dA*dT*dT*eG*e[5mC]*eT*eT*eG) [compound 413460]
% inhibition (human Factor 11 mRNA [1]; [5]): 40%

413535 (antisense eG*eT*e[5mC]*eA*e[5mC]*dA*dT*dT*dT*dA*dA*dA*dA*dT*dT*eT*e[5mC]*e[5mC]*eA*eA) [compound 413535]
% inhibition (human Factor 11 mRNA [1]; [6]): 41%

413494 (antisense eG*eT*eG*eG*eT*dT*dT*d[5mC]*d[5mC]*dA*dG*dT*dT*dT*d[5mC]*eA*eA*e[5mC]*eA*eA) [compound 413494]
% inhibition (human Factor 11 mRNA [1]; [5]): 70%

413487 (antisense eA*eA*e[5mC]*eG*eA*dT*d[5mC]*d[5mC]*dT*dG*dG*dG*d[5mC]*dT*dT*eG*eA*eT*eT*eT) [compound 413487]
% inhibition (human Factor 11 mRNA [1]; [5]): 57%

413480 (antisense eA*eA*eG*eA*eA*dA*dT*d[5mC]*dA*dG*dT*dG*dT*d[5mC]*dA*eT*eG*eG*eT*eA) [compound 413480]
% inhibition (human Factor 11 mRNA [1]; [5]): 71%

412231 (antisense eT*e[5mC]*e[5mC]*eT*eG*dG*dG*d[5mC]*dT*dT*dG*dA*dT*dT*dT*eT*eG*eG*eT*eG) [compound 412231]
% inhibition (human Factor 11 mRNA [1]; [5]): 74%

412190 (antisense eA*eG*eT*eA*eT*dG*dT*d[5mC]*dA*dG*dA*dA*dA*dT*dA*eT*eA*e[5mC]*e[5mC]*eT) [compound 412190]
% inhibition (human Factor 11 mRNA [1]; [5]): 24%

412189 (antisense eA*eA*eA*eT*eA*dT*dA*d[5mC]*d[5mC]*dT*dT*dG*dA*dG*dA*eG*eA*eA*eT*eT) [compound 412189]
% inhibition (human Factor 11 mRNA [1]; [5]): 8%

413520 (antisense eG*e[5mC]*eT*e[5mC]*eT*dG*dA*dG*dA*dG*dT*dT*d[5mC]*d[5mC]*dA*eA*eT*eT*e[5mC]*eA) [compound 413520]
% inhibition (human Factor 11 mRNA [1]; [6]): 52%

413510 (antisense eT*eG*e[5mC]*eA*eA*dG*d[5mC]*dT*dG*dG*dA*dA*dA*dT*dA*eA*eA*eA*eG*e[5mC]) [compound 413510]
% inhibition (human Factor 11 mRNA [1]; [6]): 17%

413497 (antisense eG*eA*eT*eT*e[5mC]*d[5mC]*dT*dG*d[5mC]*dA*dA*dA*dA*dT*dG*eG*eT*eG*eA*eA) [compound 413497]
% inhibition (human Factor 11 mRNA [1]; [5]): 39%

412245 (antisense eG*eT*e[5mC]*eA*e[5mC]*dT*dA*dA*dG*dG*dG*dT*dA*dT*d[5mC]*eT*eT*eG*eG*e[5mC]) [compound 412245]
% inhibition (human Factor 11 mRNA [1]; [5]): 75%

412255 (antisense eG*e[5mC]*e[5mC]*eA*e[5mC]*dT*dA*d[5mC]*dT*dT*dG*dG*dT*dT*dA*eT*eT*eT*eT*e[5mC]) [compound 412255]
% inhibition (human Factor 11 mRNA [1]; [5]): 38%

412204 (antisense eT*eT*e[5mC]*eA*eT*dG*dT*d[5mC]*dT*dA*dG*dG*dT*d[5mC]*d[5mC]*eA*e[5mC]*eA*eT*eA) [compound 412204]
% inhibition (human Factor 11 mRNA [1]; [5]): 74% | % inhibition (human Factor 11 mRNA [2]; HepG2, lipofectin, ~24 h, gapmers targeted to nucleobases 656 to 704 of SEQ ID NO: 1): 76%

413498 (antisense eG*e[5mC]*eA*eG*eA*dG*dT*dG*dT*dA*dG*dA*dT*dT*d[5mC]*e[5mC]*eT*eG*e[5mC]*eA) [compound 413498]
% inhibition (human Factor 11 mRNA [1]; [5]): 60%

412237 (antisense eT*eG*eA*e[5mC]*eT*d[5mC]*dT*dA*d[5mC]*d[5mC]*d[5mC]*d[5mC]*dA*dT*dA*eG*eA*eA*eA*e[5mC]) [compound 412237]
% inhibition (human Factor 11 mRNA [1]; [5]): 48%

412230 (antisense eG*eA*eT*eT*eT*dT*dG*dG*dT*dG*dG*dT*dA*d[5mC]*dA*e[5mC]*eT*e[5mC]*eA*eT) [compound 412230]
% inhibition (human Factor 11 mRNA [1]; [5]): 52%

412216 (antisense eA*eA*eA*eG*eA*dT*dT*dT*d[5mC]*dT*dT*dT*dG*dA*dG*eA*eT*eT*e[5mC]*eT) [compound 412216]
% inhibition (human Factor 11 mRNA [1]; [5]): 43%

412218 (antisense eA*eA*e[5mC]*e[5mC]*eA*dG*dA*dA*dA*dG*dA*dG*d[5mC]*dT*dT*eT*eG*e[5mC]*eT*e[5mC]) [compound 412218]
% inhibition (human Factor 11 mRNA [1]; [5]): 27%

413479 (antisense eT*eG*eT*e[5mC]*eA*dT*dG*dG*dT*dA*dA*dA*dA*dT*dG*eA*eA*eG*eA*eA) [compound 413479]
% inhibition (human Factor 11 mRNA [1]; [5]): 40%

413533 (antisense eA*eT*e[5mC]*e[5mC]*eA*dG*dT*dT*d[5mC]*dA*d[5mC]*d[5mC]*dA*dT*dT*eG*eG*eA*eG*eA) [compound 413533]
% inhibition (human Factor 11 mRNA [1]; [6]): 48%

413475 (antisense eG*e[5mC]*e[5mC]*eA*eT*dT*d[5mC]*d[5mC]*dT*dG*dG*dG*dA*dA*dA*eA*eG*eA*eA*eG) [compound 413475]
% inhibition (human Factor 11 mRNA [1]; [5]): 80%

413474 (antisense eA*eG*e[5mC]*eA*eA*d[5mC]*d[5mC]*dG*dG*dG*dA*dT*dG*dA*dT*eG*eA*eG*eT*eG) [compound 413474]
% inhibition (human Factor 11 mRNA [1]; [5]): 84% | % inhibition (human Factor 11 mRNA [2]; HepG2 cells, lipofectin, gapmers targeted to nucleobases 1018 to 1042 of SEQ ID NO: 1): 93% | IC50 (human Factor 11 mRNA [3]): 0.028 µM | percent inhibition of Factor 11 at 9.375 nM (human Factor 11 mRNA [3]; 9.375 nM, relative to untreated control cells): 29% | percent inhibition of Factor 11 at 18.75 nM (human Factor 11 mRNA [3]; 18.75 nM, relative to untreated control cells): 44% | percent inhibition of Factor 11 at 37.5 nM (human Factor 11 mRNA [3]; 37.5 nM, relative to untreated control cells): 57% | percent inhibition of Factor 11 at 75 nM (human Factor 11 mRNA [3]; 75 nM, relative to untreated control cells): 67% | IC50 (human Factor 11 mRNA [4]): 6.9 µM | percent inhibition of Factor 11 at 0.7 μM (human Factor 11 mRNA [4]; 0.7 μM, relative to untreated control cells): 0% | percent inhibition of Factor 11 at 2.2 μM (human Factor 11 mRNA [4]; 2.2 μM, relative to untreated control cells): 5% | percent inhibition of Factor 11 at 6.7 μM (human Factor 11 mRNA [4]; 6.7 μM, relative to untreated control cells): 52% | percent inhibition of Factor 11 at 20 μM (human Factor 11 mRNA [4]; 20 μM, relative to untreated control cells): 81%

413495 (antisense eT*eT*eG*eG*e[5mC]*dT*dT*dT*d[5mC]*dT*dG*dG*dA*dG*dA*eG*eT*eA*eT*eT) [compound 413495]
% inhibition (human Factor 11 mRNA [1]; [5]): 58%

413490 (antisense e[5mC]*eT*eA*e[5mC]*e[5mC]*d[5mC]*d[5mC]*dA*dT*dA*dG*dA*dA*dA*d[5mC]*eA*eG*eT*eG*eA) [compound 413490]
% inhibition (human Factor 11 mRNA [1]; [5]): 57%

413508 (antisense eG*eT*eT*eG*eG*dT*dA*dA*dA*dA*dT*dG*d[5mC]*dA*dA*e[5mC]*e[5mC]*eA*eA*eA) [compound 413508]
% inhibition (human Factor 11 mRNA [1]; [6]): 64%

412251 (antisense e[5mC]*eT*eA*eG*e[5mC]*dA*dT*dT*dT*dT*d[5mC]*dT*dT*dA*d[5mC]*eA*eA*eA*e[5mC]*eA) [compound 412251]
% inhibition (human Factor 11 mRNA [1]; [5]): 58%

412264 (antisense e[5mC]*eA*e[5mC]*eA*e[5mC]*dT*dT*dG*dA*dT*dG*dA*dA*dT*dT*eG*eT*eA*eT*eA) [compound 412264]
% inhibition (human Factor 11 mRNA [1]; [5]): 27%

412250 (antisense eT*eG*eG*e[5mC]*eA*d[5mC]*dA*dG*dT*dG*dA*dA*d[5mC]*dT*d[5mC]*eA*eA*e[5mC]*eA*e[5mC]) [compound 412250]
% inhibition (human Factor 11 mRNA [1]; [5]): 63%

412200 (antisense eA*eA*eG*eA*eA*dT*dA*d[5mC]*d[5mC]*d[5mC]*dA*dG*dA*dA*dA*eT*e[5mC]*eG*e[5mC]*eT) [compound 412200]
% inhibition (human Factor 11 mRNA [1]; [5]): 59%
